Patent publication US20080207692A1, “Stabilized and preserved ketoifen ophthalmic compositions” (priority 2005, published 2008)

Tests used:
Type in all cases: physicochemical
[1] = Stability of ketotifen-perborate formulations filled in polypropylene bottles and stored at 55° C.; details: stored at 55° C., Table 2 formulations
Description: The stability of the formulations shown in Table 1 are evaluated by filling the formulations in bottles and storing the formulations at 55° C. for various times.

[2] = Hot stability: formulations heated at 100° C. for 24 hours
[3] = Compatibility of ketotifen with low concentrations of hydrogen peroxide

Stability of ketotifen (in words) [1]: stable | Stability of ketotifen (in words) [2]: stable | Compatibility with low concentrations of hydrogen peroxide ([3]; formulated at a pH lower than neutral pH): compatible | Compatibility with low concentrations of hydrogen peroxide ([3]; formulated at neutral pH, i.e., a pH of about 7): not compatible
SMILES: CN1CCC(=C2c3ccccc3CC(=O)c3sccc32)CC1 [ketotifen]
